{"source": "paper PMC7473772", "about": "(eLife, 2020)", "key": {"[1]": {"tested_on": "tbaqp2/tbaqp3 null cells expressing TbAQP2 L218M", "test": "microbe, parasite or virus in culture", "format": "cell-based, Trypanosoma brucei brucei"}, "[2]": {"tested_on": "tbaqp2/tbaqp3 null cells expressing TbAQP2^I110W/L264R", "format": "cell-based, Trypanosoma brucei brucei"}, "[3]": {"tested_on": "tbaqp2/tbaqp3 null cells expressing TbAQP2 L84W", "test": "microbe, parasite or virus in culture", "format": "cell-based, Trypanosoma brucei brucei"}, "[4]": {"tested_on": "tbaqp2/tbaqp3 null cells expressing TbAQP2 L118W", "test": "microbe, parasite or virus in culture", "format": "cell-based, Trypanosoma brucei brucei"}, "[5]": {"tested_on": "tbaqp2/tbaqp3 null cells expressing TbAQP2 L218W", "test": "microbe, parasite or virus in culture", "format": "cell-based, Trypanosoma brucei brucei"}, "[6]": {"tested_on": "tbaqp2/tbaqp3 null cells expressing TbAQP2^S131P/S263A", "format": "cell-based, Trypanosoma brucei brucei"}, "[7]": {"tested_on": "tbaqp2 null (AQP2-KO)", "test": "Drug sensitivity assay (resazurin)", "format": "cell-based", "conditions": "Trypanosoma brucei, read-out: EC50 AQP2-KO AVG, AQP2-KO / tbaqp2 null; 48 h drug + 24 h resazurin"}, "[8]": {"tested_on": "tbaqp2/tbaqp3 null cells expressing TbAQP2 L84M", "test": "microbe, parasite or virus in culture", "format": "cell-based, Trypanosoma brucei brucei"}, "[9]": {"tested_on": "tbaqp2/tbaqp3 null cells expressing TbAQP2^L264R", "format": "cell-based, Trypanosoma brucei brucei"}, "[10]": {"tested_on": "tbaqp2/tbaqp3 null cells expressing TbAQP2WT", "test": "microbe, parasite or virus in culture", "format": "cell-based, Trypanosoma brucei brucei", "conditions": "for EC50: Trypanosoma brucei"}, "[11]": {"tested_on": "tbaqp2/tbaqp3 null cells expressing TbAQP2 L118M", "test": "microbe, parasite or virus in culture", "format": "cell-based, Trypanosoma brucei brucei"}, "[12]": {"tested_on": "tbaqp2/tbaqp3 null cells expressing TbAQP2^I110W", "format": "cell-based, Trypanosoma brucei brucei"}, "[13]": {"tested_on": "T. b. brucei 2T1", "test": "Drug sensitivity assay (resazurin)", "format": "cell-based", "conditions": "Trypanosoma brucei, 48 h drug + 24 h resazurin, read-out: EC50 control 2T1 AVG", "protocol": "The tbaqp2/tbaqp3 null cells ([Baker et al., 2012]) and tbaqp1-2-3 null cells ([Jeacock et al., 2017]) (both obtained from David Horn, University of Dundee, UK) are derived from the 2T1 strain of T. b. brucei ([Alsford and Horn, 2008]). The CRK12 RNAi cell line^28 was obtained from Dr Tansy Hammarton (University of Glasgow, UK) and is also based on the 2T1 cell line; RNAi expression was induced with 1 µg/ml tetracycline in the medium. All experiments were performed with bloodstream form trypanosomes grown in vitro in HMI-11 medium as described ([Wallace et al., 2002]) at 37°C in a 5% CO2 atmosphere. Cultures were routinely maintained in 10 ml of this medium, being seeded at 5 × 10^4 cells/ml and passed to fresh medium at reaching approximately 3 × 10^6 cells/ml after 48 hr. For transport experiments 150 or 200 ml of culture was seeded at the same density in large flasks and incubated until the culture reached late-log phase.\nDrug sensitivity assays for T. b. brucei bloodstream forms used the cell viability dye resazurin (Sigma) and were performed exactly as described ([Wallace et al., 2002]; [Bridges et al., 2007]) in 96-well plates with doubling dilutions of test compound, starting at 100 µM, over 2 rows of the plate (23 dilutions plus no-drug control). Incubation time with test compound was 48 hr (37°C/5% CO2), followed by an additional 24 hr in the presence of the dye."}, "[14]": {"tested_on": "tbaqp2/tbaqp3 null cells expressing TbAQP2^L258Y", "format": "cell-based, Trypanosoma brucei brucei"}, "[15]": {"tested_on": "tbaqp2/tbaqp3 null cells", "test": "microbe, parasite or virus in culture", "format": "cell-based, Trypanosoma brucei brucei", "conditions": "for EC50: Trypanosoma brucei"}, "[16]": {"molecular_target": "TbAQP2/HAPT1 (Trypanosoma brucei brucei, UniProt Q6ZXT3)", "sequence (Q6ZXT3 whole entry)": "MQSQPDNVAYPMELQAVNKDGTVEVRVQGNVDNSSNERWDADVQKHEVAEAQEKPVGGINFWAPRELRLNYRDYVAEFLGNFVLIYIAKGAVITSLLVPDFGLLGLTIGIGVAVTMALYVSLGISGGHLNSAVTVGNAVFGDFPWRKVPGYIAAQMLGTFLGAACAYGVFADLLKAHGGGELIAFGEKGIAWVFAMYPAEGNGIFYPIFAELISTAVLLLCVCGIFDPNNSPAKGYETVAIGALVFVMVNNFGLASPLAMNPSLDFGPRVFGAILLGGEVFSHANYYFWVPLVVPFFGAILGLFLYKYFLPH", "test": "cell-based", "format": "cell-based"}, "[17]": {"conditions": "Trypanosoma brucei, read-out: EC50, MEAN (nM)"}, "[18]": {"conditions": "Trypanosoma brucei, read-out: EC50, single repeats"}, "[19]": {"conditions": "Trypanosoma brucei, read-out: EC50, MEAN"}}, "note": "“And” between values parts separate entries of the source, which are not always exact repeats. Equal entries are not always repeated. Where two headings read alike, the source gives them in different places."}
{"compound": "N=C(N)c1ccc(/N=N/Nc2ccc(C(=N)N)cc2)cc1", "note": "[Diminazene]", "values": [{"measurement": "EC50, MEAN (% KO)", "setting": "[1]", "result": 48.28, "unit": "% KO"}, {"measurement": "Sensitisation relative to tbaqp2/tbaqp3 null", "setting": "[1]", "result": "~ 2 fold"}, {"measurement": "EC50", "setting": "[1]; [17]", "result": 54, "unit": "nM"}, {"measurement": "EC50", "setting": "[1]; [18]", "result": 38.7, "unit": "nM"}, {"measurement": "EC50", "setting": "[1]; read-out: EC50, single repeats", "result": "61.5 nM and 61.9 nM and 39.1 nM and 34.8 nM and 41.6 nM"}, {"measurement": "EC50 as percent of AQP2/3 null EC50, MEAN", "setting": "[2]", "result": 108.15, "unit": "%"}, {"measurement": "EC50 (% of aqp2/aqp3 null), MEAN", "setting": "[3]", "result": "113.28 % of aqp2/aqp3 null"}, {"measurement": "EC50 (% of aqp2/aqp3 null), single repeats", "setting": "[3]", "result": "126.86 % of aqp2/aqp3 null and 125.65 % of aqp2/aqp3 null and 87.33 % of aqp2/aqp3 null"}, {"measurement": "EC50", "setting": "[3]; [19]", "result": 86.1, "unit": "nM"}, {"measurement": "EC50", "setting": "[3]; [18]", "result": 96.4, "unit": "nM"}, {"measurement": "EC50", "setting": "[3]; read-out: EC50, single repeats", "result": "95.5 nM and 66.4 nM"}, {"measurement": "EC50 (% of aqp2/aqp3 null), MEAN", "setting": "[4]", "result": "95.82 % of aqp2/aqp3 null"}, {"measurement": "EC50 (% of aqp2/aqp3 null), single repeats", "setting": "[4]", "result": "118.42 % of aqp2/aqp3 null and 101.85 % of aqp2/aqp3 null and 67.18 % of aqp2/aqp3 null"}, {"measurement": "EC50", "setting": "[4]; [19]", "result": 72.8, "unit": "nM"}, {"measurement": "EC50", "setting": "[4]; [18]", "result": 90, "unit": "nM"}, {"measurement": "EC50", "setting": "[4]; read-out: EC50, single repeats", "result": "77.4 nM and 51.1 nM"}, {"measurement": "EC50 (% of aqp2/aqp3 null), MEAN", "setting": "[5]", "result": "38.99 % of aqp2/aqp3 null"}, {"measurement": "Sensitisation relative to tbaqp2/tbaqp3 null", "setting": "[5]", "result": "~ 2 fold"}, {"measurement": "EC50", "setting": "[5]; [19]", "result": 29.6, "unit": "nM"}, {"measurement": "EC50, percent of AQP2/3 null EC50", "setting": "[6]", "result": 93.48, "unit": "%"}, {"measurement": "EC50", "setting": "[7]", "result": 108, "unit": "nM"}, {"measurement": "EC50, MEAN (% KO)", "setting": "[8]", "result": 99.61, "unit": "% KO"}, {"measurement": "EC50", "setting": "[8]; [17]", "result": 145, "unit": "nM"}, {"measurement": "EC50, percent of AQP2/3 null EC50", "setting": "[9]", "result": 99.35, "unit": "%"}, {"measurement": "EC50 (% of aqp2/aqp3 null), MEAN", "setting": "[10]", "result": "97.55 % of aqp2/aqp3 null"}, {"measurement": "EC50, MEAN (% KO)", "setting": "[10]", "result": 98.90, "unit": "% KO"}, {"measurement": "EC50, percent of AQP2/3 null EC50", "setting": "[10]", "result": "96.75% and 102.22% and 102.99% and 78.60%"}, {"measurement": "EC50 as percent of AQP2/3 null EC50, MEAN", "setting": "[10]", "result": 102.99, "unit": "%"}, {"measurement": "EC50", "setting": "[10]; read-out: EC50, MEAN", "result": 74.2, "unit": "nM"}, {"measurement": "EC50", "setting": "[10]; read-out: EC50, MEAN (nM)", "result": 149, "unit": "nM"}, {"measurement": "EC50, MEAN (% KO)", "setting": "[11]", "result": 93.77, "unit": "% KO"}, {"measurement": "EC50", "setting": "[11]; [17]", "result": 177, "unit": "nM"}, {"measurement": "EC50, percent of AQP2/3 null EC50", "setting": "[12]", "result": 114.65, "unit": "%"}, {"measurement": "EC50", "setting": "[13]", "result": 122, "unit": "nM"}, {"measurement": "EC50, percent of AQP2/3 null EC50", "setting": "[14]", "result": 105.69, "unit": "%"}, {"measurement": "EC50 (% of aqp2/aqp3 null), MEAN", "setting": "[15]", "result": "100.00 % of aqp2/aqp3 null"}, {"measurement": "EC50, MEAN (% KO)", "setting": "[15]", "result": 100.00, "unit": "% KO"}, {"measurement": "EC50, percent of AQP2/3 null EC50", "setting": "[15]", "result": 100.00, "unit": "%"}, {"measurement": "EC50 as percent of AQP2/3 null EC50, MEAN", "setting": "[15]", "result": 100.00, "unit": "%"}, {"measurement": "EC50 as percent of AQP2/3 null EC50, single repeats", "setting": "[15]", "result": 100, "unit": "%"}, {"measurement": "EC50", "setting": "[15]; read-out: EC50, MEAN", "result": 76, "unit": "nM"}, {"measurement": "EC50", "setting": "[15]; read-out: EC50, MEAN (nM)", "result": 175, "unit": "nM"}, {"measurement": "ΔG0", "setting": "[16]", "result": -5.74, "unit": "kcal/mol"}, {"measurement": "δ(ΔG0)", "setting": "[16]", "result": 4.45, "unit": "kcal/mol"}, {"measurement": "Ki", "setting": "[16]; HAPT Ki, AVG", "result": 62500, "unit": "nM"}, {"measurement": "Ki", "setting": "[16]; Ki", "result": 63000, "unit": "nM"}]}
